ChEMBL document CHEMBL4007395 (J Med Chem, 2017)

How the values were obtained:
[1] = system: Plasma; assay: Plasma concentration in human at 8 g/day, po by HPLC/TMS; type: ADME, organism-based; details: in vivo
[2] = Plasma concentration in human at 3.6 g, po administered as capsule measured at 1 hr post dose by UV-RP-HPLC method; type: ADME, organism-based
[3] = Drug uptake in human rectal mucosa assessed per gram protein at 4 g/day for 30 days; type: ADME; details: 720 h
[4] = Inhibition of Escherichia coli AmpC beta-lactamase using CENTA as substrate preincubated for 5 mins followed by substrate addition by UV-vis spectrophotometric method
[5] = species: Homo sapiens; assay: Effect on total aberrant foci number in human colon cancer patient at 2 g/day for 30 days during phase IIa study by colonoscopic analysis; type: functional
[6] = Half-life in Tris-HCl buffer at 70 uM at pH 7.2 by UV/Vis spectrophotometric method; type: physicochemical
[7] = Half-life in Tris-HCl buffer at 70 uM at pH 7.5 by UV/Vis spectrophotometric method; type: physicochemical
[8] = Half-life in Sprague-Dawley rat at 500 mg/kg, po by LC-MS/MS analysis; type: ADME, organism-based; details: in vivo
[9] = Apparent permeability in human Caco2 cells; type: ADME, cell-based; details: Caco-2
[10] = system: Mus musculus; assay: Cmax in mouse at 100 mg/kg, po after 30 mins; type: ADME, organism-based; set-up: dose 100 mg/kg, route oral; details: in vivo, 0.5 h
[11] = Inhibition of HIV-2 protease using anthranilyl-HIV protease as substrate preincubated for 5 mins followed by substrate addition in presence of nonionic detergent Triton-X-100 by fluorescence assay; set-up: species or system Human immunodeficiency virus 2
[12] = Drug uptake in human rectal mucosa assessed per gram protein at 2 g/day for 30 days; type: ADME; details: 720 h
[13] = system: Plasma; assay: Drug metabolism in human plasma assessed as curcumin glucuronide formation at 3.6 g, po administered as capsule measured at 1 hr post dose by UV-HPLC-MS analysis; type: ADME, organism-based; details: in vivo
[14] = Inhibition of Escherichia coli AmpC beta-lactamase using CENTA as substrate preincubated for 5 mins followed by substrate addition in presence of nonionic detergent Triton-X-100 by UV-vis spectrophotometric method
[15] = Oral bioavailability in Sprague-Dawley rat at 500 mg/kg by LC-MS/MS analysis; type: ADME, organism-based; details: in vivo
[16] = system: Plasma; assay: Drug metabolism in human plasma assessed as curcumin sulfate formation at 3.6 g, po administered as capsule measured at 1 hr post dose by UV-HPLC-MS analysis; type: ADME, organism-based; details: in vivo
[17] = target: Glycogen synthase kinase-3 beta (Rattus norvegicus, UniProt P18266); assay: Inhibition of recombinant rat N-terminal GST-tagged GSK3beta expressed in Escherichia coli assessed as reduction in tau phosphorylation preincubated for 30 mins followed by tau protein addition measured after 1 hr by ELISA
[18] = Cmax in human at 12 g, po administered as single dose capsule after 2 hrs by UV-HPLC method; type: ADME, organism-based; set-up: dose 12 g, route oral; details: in vivo
[19] = Inhibition of malate dehydrogenase (unknown origin) using oxaloacetate as substrate preincubated for 5 mins followed by substrate addition by UV-vis spectrophotometric method; set-up: species or system Homo sapiens
[20] = Inhibition of HIV-2 protease using anthranilyl-HIV protease as substrate preincubated for 5 mins followed by substrate addition by fluorescence assay; set-up: species or system Human immunodeficiency virus 2
[21] = Inhibition of malate dehydrogenase (unknown origin) using oxaloacetate as substrate preincubated for 5 mins followed by substrate addition in presence of nonionic detergent Triton-X-100 by UV-vis spectrophotometric method; set-up: species or system Homo sapiens
[22] = species: Homo sapiens; assay: Effect on total aberrant foci number in human colon cancer patient at 4 g/day for 30 days during phase IIa trial by colonoscopic analysis; type: functional

Sequence of Glycogen synthase kinase-3 beta (P18266 whole entry): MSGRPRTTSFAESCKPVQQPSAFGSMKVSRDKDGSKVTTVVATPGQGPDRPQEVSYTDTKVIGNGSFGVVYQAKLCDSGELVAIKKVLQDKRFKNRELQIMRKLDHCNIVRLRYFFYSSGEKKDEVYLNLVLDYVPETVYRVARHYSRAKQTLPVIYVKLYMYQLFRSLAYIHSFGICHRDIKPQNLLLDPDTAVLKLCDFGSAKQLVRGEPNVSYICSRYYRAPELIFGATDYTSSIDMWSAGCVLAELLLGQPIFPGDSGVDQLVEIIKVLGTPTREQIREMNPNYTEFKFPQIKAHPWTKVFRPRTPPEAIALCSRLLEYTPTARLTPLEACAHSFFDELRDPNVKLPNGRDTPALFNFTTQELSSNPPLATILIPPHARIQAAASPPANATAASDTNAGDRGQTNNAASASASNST

Structure (SMILES): COc1cc(/C=C/C(=O)CC(=O)/C=C/c2ccc(O)c(OC)c2)ccc1O [CURCUMIN]
- Cp [1]: 22 to 41 ng/mL
- concentration at 1 h [2]: 11.1 ng/mL
- Drug uptake [3]: 3.8 µg
- IC50 [4]: 12 µM
- Activity [5]: 0
- half-life at 70 µM [6]: < 10 min
- half-life at 70 µM [7]: 20 min
- half-life [8]: < 5 min
- Papp [9]: 3.18 ×10⁻⁶ cm/s
- Cmax [10]: 60 nM
- IC50 [11]: > 100 µM
- Drug uptake [12]: 8.2 µg
- Drug metabolism [13]: 15.8 nmol/L
- IC50 [14]: > 30 µM
- bioavailability [15]: < 1%
- Drug metabolism [16]: 8.9 nmol/L
- IC50 [17]: 0.066 µM
- Cmax [18]: 57.6 ng/mL
- IC50 [19]: 9 µM
- IC50 [20]: 9 µM
- IC50 [21]: > 30 µM
- Activity [22]: 6
